Molecules are shown by their SMILES.

For this assay, the target named is mouse CB2 (mCB2) (Mus musculus, UniProt P47936). In kind it is binding.
Chain of mouse CB2 (mCB2) (P47936 whole entry): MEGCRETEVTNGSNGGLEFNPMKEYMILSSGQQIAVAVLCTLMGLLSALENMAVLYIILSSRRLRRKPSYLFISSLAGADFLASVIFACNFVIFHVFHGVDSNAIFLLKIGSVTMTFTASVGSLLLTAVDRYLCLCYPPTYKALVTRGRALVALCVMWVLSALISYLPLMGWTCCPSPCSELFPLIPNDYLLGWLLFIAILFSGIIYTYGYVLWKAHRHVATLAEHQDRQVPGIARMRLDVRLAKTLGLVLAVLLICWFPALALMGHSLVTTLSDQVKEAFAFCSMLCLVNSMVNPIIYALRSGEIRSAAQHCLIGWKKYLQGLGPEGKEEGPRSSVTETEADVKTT

Broadly, the Ki is the equilibrium dissociation constant of an inhibitor or competing ligand from its target. A lower Ki goes with higher affinity. In turn, `CCCCCCC(C)(C)c1cc(O)c2c(c1)oc(=O)c1ccc(OC)cc12` [AM1710, 3-(1′,1′-dimethylheptyl)-1-hydroxy-9-methoxy-6H-benzo[c]chromene-6-one] returned an inhibition constant Ki of 17 nM.

The record behind these values is PMC3089437 (2011).
